Peptide text beside a SMILES is read from it. * marks the point of attachment. Cbz = O=C(OCc1ccccc1)*
Legend:
cancer cells = assay: IFNγ treatment of cancer cells, PD-L1 in cellular and 100 k g fractions and vesicle number; assay type: cell-based
Text: In vivo, tumor cells can mediate adaptive resistance by up-regulating PD-L1 in response to interferon-gamma (IFNγ) released by the cytotoxic T lymphocytes within the tumor bed. Therefore, it was explored whether, in addition to up-regulating cellular PD-L1, IFNγ may increase the secretion of PD-L1. Treatment of cancer cells with IFNγ led to an increase in PD-L1 in both the cellular and 100 k g fractions. […] Thus, similar to the cell surface membrane PD-L1, extracellular vesicular PD-L1 increased in response to IFNγ.

PC3 and SK-MEL-28 cells = assay: Lysosome / proteasome inhibition, western analysis of PD-L1 protein levels; assay type: cell-based; details: for PD-L1 protein levels: both lines
Method: Next, potential differences in protein degradation were evaluated. The two main pathways for protein degradation are the lysosome and the proteasome. The small molecule Bafalomycin A1 (BafA1) inhibits lysosomal activity by blocking the V-ATPase hydrogen pump and thus acidification of the lysosome. An increase in the protein LC3B, a known target of the lysosome, confirmed effectiveness of the small molecule on PC3 and SK-MEL-28 cells. However, levels of PD-L1 in both lines were unaltered, implying little turnover of PD-L1 by the lysosome in these cells. The small molecule MG132 suppresses proteasome activity by blocking the 26s proteasome complex and consequentially proteolysis. The proteasome recognizes ubiquitin side chains on its targets. An increase in the presence of ubiquitinated proteins confirmed the effectiveness of MG132 on the two cells lines.

Compound | PD-L1 in both the cellular and 100 k g fractions (cancer cells) | number of vesicles secreted (cancer cells) | protein LC3B, known target of the lysosome (PC3 and SK-MEL-28 cells; PC3 and SK-MEL-28 cells) | PD-L1 protein levels (PC3 and SK-MEL-28 cells; PC3 and SK-MEL-28 cells) | presence of ubiquitinated proteins (PC3 and SK-MEL-28 cells; PC3 and SK-MEL-28 cells) | PD-L1 levels (PC3 and SK-MEL-28 cells; SK-MEL-28 cells only, not PC3)
interferon-gamma [IFNγ, interferon-gamma released by cytotoxic T lymphocytes] | increase | did not increase |  |  |  | 
CO/C1=C\C(C)=C\[C@@H](C)[C@@H](O)[C@@H](C)C/C(C)=C/C=C/[C@H](OC)[C@@H]([C@@H](C)[C@@H](O)[C@H](C)[C@@]2(O)C[C@@H](O)[C@H](C)[C@@H](C(C)C)O2)OC1=O [BafA1, Bafalomycin A1] |  |  | increase | unaltered |  | 
CC(C)C[C@@H](C=O)NC(=O)[C@H](CC(C)C)NC(=O)[C@H](CC(C)C)NC(=O)OCc1ccccc1 [MG132] (Cbz-Leu-Leu-Leu-aldehyde) |  |  |  | minimally affected | increase | slightly up

Reference: US20210046109A1, “Suppressive Exosomes in Cancer and for Immunosuppression” (The Regents of the University of California, priority 2018, published 2021)
